Laboratory results reported in patent US20260183283A1 (priority 2022, published 2026).

Experiments:
[1] = tested on: Pcca^−/−PCCA(A138T)^tg/0 mice; assay: Total CoA in liver and brain of Pcca−/−PCCA(A138T)tg/0 mice; format: in vivo; settings: 22.5 ppm (3 mg/kg) in chow for 30 days after weaning
Excerpt: Water was supplied ad libitum.

[2] = tested on: Pank1,2 neural knockout mice; assay: Total forebrain CoA in Pank1,2 neural knockout mice; format: in vivo; settings: 75 ppm in chow from postnatal day 14; assessed at postnatal day 45
Excerpt: Water was supplied ad libitum. Mice were maintained on a chow diet with purified ingredients containing 19% kcal protein, 66.5% kcal carbohydrate and 14.4% kcal fat (Envigo #TD170542) which was similar to standard rodent chow (LabDiet #5013). The mice were randomized into the treatment arms. […] However, this is an approximation, as SynCre^+Pank1^−/−Pank2^−/− mice both weigh less and eat less than wild-type mice. […] At the end of the dark cycle, individual mice were placed in an open rectangular arena (36.8 cm×43.2 cm) for 5 min during the light cycle and motor activity was evaluated using a video tracking system provided by HVS Image with associated 2100 Plus software (San Diego, CA, USA). Each animal was placed in the center of the arena under standard overhead lighting and the total distance traveled and the percentage of time in motion were recorded. The behaviors of age-matched control animals, treated with Compound (I) and untreated, were quantified and compared. […] Liver, forebrain and hindbrain were quickly excised, approximately 30-50 mg pieces were immediately flash frozen in liquid N2 and stored frozen at −80° C. until analysis. The plasma and tissue samples were used for Compound (I) and total CoA determinations.
Statistical significance was determined using a two-tailed Student's t test (GraphPad software) and P-values are shown about the bars, N=6-8. […]

[3] = tested on: SynCre^+Pank1^−/−Pank2^−/− mice; assay: Neurometabolites by 1H MRS in SynCre+Pank1−/−Pank2−/− mice; format: in vivo; settings: 10 mg/kg/day (75 ppm) in chow; midbrain 1H MRS at P45; normalized to total creatine; mean ± SD
Protocol: The ^1H MRS studies were performed on a Bruker Clinscan 7T magnetic resonance imaging (MRI) scanner (Bruker BioSpin MRI GmbH, Ettlingen, Germany). Mice were anesthetized using isoflurane mixed with oxygen (1-2%) and the respiration rate was monitored. Each MRI was acquired with a mouse brain surface receive coil positioned over the mouse head and placed inside a 72 mm transmit/receive coil. After the localizer, a T2-weighted turbo spin echo sequence was performed in the coronal (TR/TE=2290/41 ms, matrix size=192×256, slice thickness 0.5 mm, number of slices=14) and axial (TR/TE=3841/50 ms, matrix size=192×144, slice thickness 0.4 mm, number of slices=42) orientations. The T2-weighted scans were used to position a 3.5×4.5×2.0 mm^3 voxel for spectroscopy in the midbrain to cover thalamus and hippocampus. […] The in vivo ^1H MRS data were quantified as the Metabolite to tCr ratio using LCModel software (v.6.3), a widely applied MRS analysis tool that employs a least-squares-based prior-knowledge fitting program. The concentration of metabolites was measured using the unsuppressed water peak as a concentration standard. […]
Data analysis: Statistical significance (p values) was determined using a two-tailed Student's t test using GraphPad software. The MRS parameters were analyzed using ‘R’ 4.0.2 and the mean values and standard deviations were calculated for each group of mice. […]

[4] = in vivo
Protocol: Holter monitoring will be obtained as indicated in the SOE. Blood and urine for PK and PD will be obtained and safety assessments will be performed. In addition, Cohort 3 (70 mg cohort) will have CSF obtained via lumbar puncture for PK assessment.

clinical = settings: for half-life / AUC / Cmax / Tmax: human, plasma; for AUC: AUCtau; for AUC / Cmax: arithmetic mean
Excerpt: Following the screening period, eligible subjects will be admitted to the clinical unit on Day 1. All subjects will receive the study drug for 7 days starting on Day 1. […] Dosing frequency and any instructions regarding meal intake will depend on data from the SAD cohorts and will be provided in a separate document. The dosing duration may be increased to up to 14 days to allow for achievement of 3 half-lives. […] Subjects will return for an EOS visit on Day 15 or up to approximately 5 half-lives up to a maximum of Day 42 (whichever is longer).
The tentative starting dose for this portion of the study will be 30 mg daily. Dose escalation for Cohort 2 and beyond will be based on the safety, tolerability, and PK of the previous cohort. […] Planned doses for subsequent cohorts are 60, 120, 200, and 300 mg daily; the maximum dose increment between cohorts will be no more than 2 times the previous dose.

PanK = assay: Phase 1 pharmacodynamic biomarkers, plasma pantothenate and whole blood acetyl-CoA; format: in vivo, human; settings: MAD cohorts at steady-state
Excerpt: Pharmacodynamic biomarker assessments will include whole blood acetyl-CoA, plasma pantothenate, and other exploratory PD biomarkers.
Pharmacodynamic biomarker samples will be analyzed using a validated assay for the PD assessments.
In MAD cohorts at steady-state, decreases in the PanK substrate, pantothenate, were observed, concurrent with increases in the PanK product, acetyl-CoA, in whole blood.

in vivo [5] = settings: dog
in vivo [6] = settings: mouse, rat, dog, monkey, iv

For `O=C(Cc1ccc(C2CC2)c(F)c1)N1CCN(c2ccc(Cl)nn2)CC1` [Compound (I), 1-(4-(6-chloropyridazin-3-yl)piperazin-1-yl)-2-(4-cyclopropyl-3-fluorophenyl)ethan-1-one], the “Increase of brain total CoA compared to untreated mice” value ([1]; brain) was about 44%, the “Increase of liver total CoA compared to untreated mice” value ([1]; liver) was about 45% and the “Increase of forebrain CoA levels vs untreated mice” value [2] was about 70%. The “GABA (GABA/tCr)” value [3] was 0.40 ± 0.02, the “Blood brain barrier penetration” value [4] was “crossed the blood brain barrier” and the “Urinary excretion of Compound (I)” value (clinical; healthy subjects) was “negligible”. It also gave a half-life (clinical; oral) of 6 to 8 h, a half-life (clinical; oral, 30 mg) of 7.55 h and an AUC (clinical; oral, 30 mg, 30 mg QD, Day 1, AUC0-24) of 476 ng·h/mL. The AUC (clinical; oral, 30 mg, 30 mg QD, Day 7, AUC0-24) was 913 ng·h/mL, the Cmax (clinical; oral, 30 mg, 30 mg QD, Day 1) was 98.3 ng/mL and the Cmax (clinical; oral, 30 mg, 30 mg QD, Day 7) was 158 ng/mL. For the same compound, the Tmax (clinical; oral, 30 mg, Tmax, 30 mg QD, Day 1, median) was 1.5 h, the Tmax (clinical; oral, 30 mg, Tmax, 30 mg QD, Day 7, median) was 1.5 h and the AUC (clinical; oral, 50 mg, 50 mg Q12H, Day 1, AUC0-12) was 925 ng·h/mL. For the same compound, the Cmax (clinical; oral, 50 mg, 50 mg Q12H, Day 1) was 155 ng/mL, the Tmax (clinical; oral, 50 mg, Tmax, 50 mg Q12H, Day 1, median) was 1.5 h and the half-life (clinical; oral, 60 mg) was 6.7 h. It also gave an AUC (clinical; oral, 60 mg, 60 mg QD, Day 1, AUC0-24) of 1670 ng·h/mL, an AUC (clinical; oral, 60 mg, 60 mg QD, Day 7, AUC0-24) of 4050 ng·h/mL and a Cmax (clinical; oral, 60 mg, 60 mg QD, Day 1) of 240 ng/mL. The Cmax (clinical; oral, 60 mg, 60 mg QD, Day 7) was 505 ng/mL, the Tmax (clinical; oral, 60 mg, Tmax, 60 mg QD, Day 1, median) was 1.75 h and the Tmax (clinical; oral, 60 mg, Tmax, 60 mg QD, Day 7, median) was 2.01 h. For the same compound, the half-life (clinical; oral, 70 mg) was 6.83 h, the AUC (clinical; oral, 70 mg, 70 mg QD, Day 7, AUC0-24) was 2950 ng·h/mL and the Cmax (clinical; oral, 70 mg, 70 mg QD, Day 1) was 205 ng/mL. The Cmax (clinical; oral, 70 mg, 70 mg QD, Day 7) was 400 ng/mL, the Tmax (clinical; oral, 70 mg, Tmax, 70 mg QD, Day 1, median) was 1.5 h and the Tmax (clinical; oral, 70 mg, Tmax, 70 mg QD, Day 7, median) was 1.5 h. For the same compound, the Tmax (clinical; po, Tmax after oral administration, healthy subjects, over cohorts) was 1 to 2 h, the “Increase in exposure with dose” value (clinical; total daily dose increased from 30 mg to 100 mg) was “more than dose-proportional” and the “Plasma Compound (I) concentration up to which increases in whole blood acetyl-CoA were observed” value (PanK) was about 200 mg/mL. For the same compound, the Plasma pantothenate (PanK; healthy adult subjects) was “decreased”, the “Whole blood acetyl-CoA” value (PanK; healthy adult subjects) was “increased” and the clearance (in vivo [5]; iv) was 16.9 mL/min/kg. The bioavailability (in vivo [5]; po) was 29.8% and the half-life (in vivo [6]) was 1 to 3 h.
